Experimental findings from ChEMBL document CHEMBL3046202, “Synthesis, spectral studies, antimicrobial and insect antifeedant potent keto oxiranes” (2011) are described below.

The source made the active and inactive calls. The rule behind the calls is not given here.

Test [1] relates to Enterococcus faecalis. The experiment in a line: Antibacterial activity against Enterococcus faecalis assessed as growth inhibition at 250 ug/ml after 24-45 hrs by disc diffusion technique. The test is classed as functional, organism-based.
A further test concerns Staphylococcus aureus. The experiment in a line: Antibacterial activity against Staphylococcus aureus assessed as diameter of growth zone inhibition at 250 ug/ml after 24-45 hrs by disc diffusion technique. The test is classed as functional. The settings on record: read-out: DIZ.
The next test relates to Klebsiella. The experiment in a line: Antibacterial activity against Klebsiella assessed as diameter of growth zone inhibition at 250 ug/ml after 24-45 hrs by disc diffusion technique. The settings on record: read-out: DIZ. The test is classed as functional.
The next test has as its system Proteus vulgaris. The experiment in a line: Antibacterial activity against Proteus vulgaris assessed as diameter of growth zone inhibition at 250 ug/ml after 24-45 hrs by disc diffusion technique. The test is classed as functional. The note with it: read-out: DIZ.
The subject of the next test is Pseudomonas. Put plainly: Antibacterial activity against Pseudomonas assessed as diameter of growth zone inhibition at 250 ug/ml after 24-45 hrs by disc diffusion technique. The test is classed as functional. The settings on record: read-out: DIZ.
For a further test, the system named is Escherichia coli. The experiment in a line: Antibacterial activity against Escherichia coli assessed as diameter of growth zone inhibition at 250 ug/ml after 24-45 hrs by disc diffusion technique. The test is classed as functional. The note with it: read-out: DIZ.
In a further test the test system is Aspergillus niger. The experiment in a line: Antifungal activity against Aspergillus niger assessed as growth inhibition at 50 ug/ml after 72 hrs by dilution method. The test is classed as functional, organism-based.
In another test the test system is Penicillium. The experiment in a line: Antifungal activity against Penicillium assessed as growth inhibition at 50 ug/ml after 72 hrs by dilution method. The test is classed as functional, organism-based.
In test [2] the test system is Enterococcus faecalis. Put plainly: Antibacterial activity against Enterococcus faecalis assessed as diameter of growth zone inhibition at 250 ug/ml after 24-45 hrs by disc diffusion technique. The test is classed as functional. The note with it: read-out: DIZ.
For test [3], the system named is Achaea janata. Put plainly: Antifeedant activity against fourth-instar larval stage of Achaea janata L. in castor leaves assessed as decrease in leaf disc consumption at 50 to 200 ppm treated for 5 mins before larval infestation by leaf-disc bioassay method. The test is classed as functional, organism-based.
In another test the test system is Candida albicans. The experiment in a line: Antifungal activity against Candida albicans assessed as diameter of growth zone inhibition at 250 ug/ml after 72 hrs by disc diffusion technique. The settings on record: read-out: DIZ. The test is classed as functional.
For test [4], the system named is Achaea janata. Put plainly: Antifeedant activity against fourth-instar larval stage of Achaea janata L. in castor leaves assessed as decrease in leaf disc consumption at 200 ppm treated for 5 mins before larval infestation by leaf-disc bioassay method. The test is classed as functional, organism-based.

On to `O=C(c1ccc(-c2ccccc2)cc1)[C@H]1O[C@@H]1c1cccc([N+](=O)[O-])c1`, for which the “growth inhibition (GI)” value with Enterococcus faecalis [1] was “inactive”. Besides, the zone of inhibition at 250 µg/mL in the test on Staphylococcus aureus, in the test on Klebsiella, with Proteus vulgaris, with Pseudomonas and with Escherichia coli was 13 mm throughout.
Turning to `O=C(c1ccc(-c2ccccc2)cc1)[C@H]1O[C@@H]1c1ccccc1[N+](=O)[O-]`, the “growth inhibition (GI)” value in the test on Aspergillus niger, in the test with Enterococcus faecalis [1] and in the test with Penicillium was “inactive” in each case. In addition, the zone of inhibition at 250 µg/mL with Staphylococcus aureus, with Klebsiella, in the test on Proteus vulgaris, with Pseudomonas and in the test with Escherichia coli was 13 mm throughout.
`O=C(c1ccc(-c2ccccc2)cc1)[C@H]1O[C@@H]1c1ccc([N+](=O)[O-])cc1`: the “growth inhibition (GI)” value with Aspergillus niger, with Enterococcus faecalis [1] and in the test on Penicillium was “inactive” throughout. In addition, the zone of inhibition at 250 µg/mL with Staphylococcus aureus, in the test with Klebsiella, in the test on Proteus vulgaris, in the test on Pseudomonas and in the test with Escherichia coli was 13 mm in each case.
`Nc1cccc([C@H]2O[C@@H]2C(=O)c2ccc(-c3ccccc3)cc2)c1`: the zone of inhibition at 250 µg/mL in the test on Enterococcus faecalis [2] turned out to be 20 mm; in the test with Staphylococcus aureus it was 20 mm; in the test on Klebsiella, 20 mm; in the test with Proteus vulgaris, 13 mm; in the test with Pseudomonas, 13 mm; in the test with Escherichia coli, 20 mm.
Turning to `Cc1ccc([C@H]2O[C@@H]2C(=O)c2ccc(-c3ccccc3)cc2)cc1`, the zone of inhibition at 250 µg/mL in the test on Enterococcus faecalis [2] is 8 mm; in the test with Staphylococcus aureus, 8 mm; in the test with Klebsiella it was 8 mm; in the test on Proteus vulgaris, 8 mm; in the test on Pseudomonas, 13 mm. Moreover, the “growth inhibition (GI)” value in the test with Aspergillus niger is “inactive”.
On to `O=C(c1ccc(-c2ccccc2)cc1)[C@H]1O[C@@H]1c1ccc(Cl)cc1`, for which the “growth inhibition (GI)” value with Aspergillus niger, with Enterococcus faecalis [1] and with Penicillium was “inactive” each time. Further, the zone of inhibition at 250 µg/mL in the test with Staphylococcus aureus amounted to 13 mm; with Klebsiella, 13 mm; in the test with Proteus vulgaris it was 13 mm; with Pseudomonas, 13 mm; with Candida albicans it was 8 mm; in the test with Escherichia coli, 13 mm. In addition, the result with Achaea janata [3] was Active.
On to `Nc1ccc([C@H]2O[C@@H]2C(=O)c2ccc(-c3ccccc3)cc2)cc1`, for which the zone of inhibition at 250 µg/mL stood at 20 mm with Enterococcus faecalis [2]; 20 mm with Staphylococcus aureus; 20 mm in the test on Klebsiella; 13 mm in the test on Proteus vulgaris; 13 mm in the test on Pseudomonas; 20 mm with Escherichia coli.
`CN(C)c1ccc([C@H]2O[C@@H]2C(=O)c2ccc(-c3ccccc3)cc2)cc1`: the “growth inhibition (GI)” value in the test on Aspergillus niger and in the test with Penicillium was “Active” throughout. Also, in the test on Enterococcus faecalis [1], the “growth inhibition (GI)” value is “inactive”. Also, the zone of inhibition at 250 µg/mL in the test on Staphylococcus aureus was determined as 20 mm; in the test on Klebsiella it was 13 mm; in the test on Proteus vulgaris, 13 mm; in the test with Pseudomonas it was 20 mm; with Candida albicans, 8 mm; with Escherichia coli it was 20 mm.
Take `O=C(c1ccc(-c2ccccc2)cc1)[C@H]1O[C@@H]1c1ccc(O)cc1`: the “growth inhibition (GI)” value in the test on Enterococcus faecalis [1] was “inactive”. The zone of inhibition at 250 µg/mL was 13 mm in the test on Staphylococcus aureus; 13 mm in the test with Klebsiella; 13 mm with Proteus vulgaris; 13 mm in the test on Pseudomonas; 20 mm in the test with Candida albicans; 13 mm in the test on Escherichia coli.
As to `O=C(c1ccc(-c2ccccc2)cc1)[C@H]1O[C@@H]1c1cccc(Br)c1`, the “growth inhibition (GI)” value in the test on Aspergillus niger and in the test on Penicillium was “Active” each time. Moreover, the “growth inhibition (GI)” value in the test with Enterococcus faecalis [1] is “inactive”. Moreover, the zone of inhibition at 250 µg/mL in the test with Staphylococcus aureus came out at 13 mm; in the test with Klebsiella, 13 mm; in the test on Proteus vulgaris it was 13 mm; in the test on Pseudomonas it was 13 mm; in the test with Candida albicans, 20 mm; in the test on Escherichia coli it was 13 mm. For the same compound, the outcome in the test on Achaea janata [4] was Active.
`COc1ccc([C@H]2O[C@@H]2C(=O)c2ccc(-c3ccccc3)cc2)cc1`: the zone of inhibition at 250 µg/mL was 20 mm with Enterococcus faecalis [2]; 13 mm with Staphylococcus aureus; 13 mm in the test with Klebsiella; 13 mm in the test on Proteus vulgaris; 13 mm with Pseudomonas; 20 mm with Candida albicans. In addition, the zone of inhibition at 250 µg/mL in the test with Escherichia coli was found to be 13 mm. For the same compound, in the test on Penicillium, the “growth inhibition (GI)” value is “Active”.
Take `O=C(c1ccc(-c2ccccc2)cc1)[C@H]1O[C@@H]1c1ccccc1`: the “growth inhibition (GI)” value in the test with Aspergillus niger, in the test on Enterococcus faecalis [1] and in the test on Penicillium was “inactive” throughout. The zone of inhibition at 250 µg/mL in the test on Staphylococcus aureus, with Klebsiella, in the test with Proteus vulgaris, in the test with Pseudomonas and with Escherichia coli was 8 mm each time.
On to `O=C(c1ccc(-c2ccccc2)cc1)[C@H]1O[C@@H]1c1cccc(Cl)c1`, for which the “growth inhibition (GI)” value in the test with Enterococcus faecalis [1] was “inactive”. Besides, the zone of inhibition at 250 µg/mL in the test on Staphylococcus aureus, in the test on Klebsiella, with Proteus vulgaris, with Pseudomonas and in the test with Escherichia coli was 13 mm throughout. In addition, in the test on Achaea janata [4], the outcome was Active.
